Assay [1] concerns the target T1, Recombinant human IKKβ (residues 1-737) (Homo sapiens, UniProt O14920).
T1 construct: Recombinant human IKKβ (residues 1-737); GST (C); made in house
T1 sequence (O14920 1-737): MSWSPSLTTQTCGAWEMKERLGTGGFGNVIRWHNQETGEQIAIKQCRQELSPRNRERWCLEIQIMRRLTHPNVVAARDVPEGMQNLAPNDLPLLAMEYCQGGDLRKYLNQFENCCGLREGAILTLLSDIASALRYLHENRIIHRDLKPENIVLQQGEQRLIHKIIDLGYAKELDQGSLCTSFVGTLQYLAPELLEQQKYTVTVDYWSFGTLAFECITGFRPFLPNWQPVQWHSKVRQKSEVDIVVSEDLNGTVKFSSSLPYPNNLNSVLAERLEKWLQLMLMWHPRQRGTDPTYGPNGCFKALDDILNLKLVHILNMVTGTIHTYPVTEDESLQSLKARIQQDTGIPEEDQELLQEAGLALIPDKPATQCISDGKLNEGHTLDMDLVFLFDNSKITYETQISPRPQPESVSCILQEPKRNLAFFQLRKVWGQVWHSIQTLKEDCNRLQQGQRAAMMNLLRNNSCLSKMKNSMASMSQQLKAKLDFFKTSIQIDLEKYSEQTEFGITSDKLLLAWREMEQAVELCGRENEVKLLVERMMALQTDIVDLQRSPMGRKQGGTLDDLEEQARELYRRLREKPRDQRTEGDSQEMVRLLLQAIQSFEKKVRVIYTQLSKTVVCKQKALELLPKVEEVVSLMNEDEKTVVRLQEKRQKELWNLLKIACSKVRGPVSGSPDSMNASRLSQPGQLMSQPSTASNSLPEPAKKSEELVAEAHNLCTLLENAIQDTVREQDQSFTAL
Nature of the assay: IKK2 assay (TR-FRET). Format: biochemical. As to conditions: ATP 1 μM final, read-out: pIC50 against IKK2 (converted). In short, it runs like this: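 TR-FRET readout (665 nm over 620 nm Eu reference) of GST-IB Ser32/36 phosphorylation after 60 min detection. Reaction: 1 μM ATP, 25 nM substrate, 0.5-5 nM GST-fused IKKβ 1-737 from baculovirus, pH 7.4 HEPES buffer, 1.7% DMSO, 15 min room temperature, EDTA-terminated.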
A general note: TR-FRET usually uses a lanthanide donor and a delayed reading to cut background.

Assay [2] concerns human monocyte stimulated cytokine production (TNF-α). Nature of the assay: Monocyte assay (LPS-stimulated TNF-α production). It counts as cell-based. As to conditions: 24 h, 200 ng/mL LPS, TNF-α by ELISA. On the procedure:
Effect of IKK-β inhibition on human monocyte stimulated cytokine production was assessed as follows: Monocytes were isolated from heparinized whole blood by Ficoll gradient, followed by purification of CD14+ cells using MACS magnetic cell separation beads. Isolated monocytes were then adhered to 96-well culture plates at 1×10^6 cells/mL in RPMI 1640 10% FBS (JRH Biosciences, Lenexa Kans.) for 2 h. Test compounds are added to the wells 30 minutes prior to stimulation with a final vehicle concentration of 0.1% DMSO. Monocytes were activated by the addition of 200 ng/mL endotoxin (LPS; E. coli serotype 026:B6)(Sigma, St. Louis, Mo.) and incubated for 24 hrs at 37 C. Cell-free supernates were analyzed by ELISA for TNF-α using Pharmingen matched pair Abs. Viability of the cells was determined by 10% trypan blue exclusion.
In general terms: In an ELISA, binding on a coated surface is turned into a signal by an enzyme label.

With `CCS(=O)(=O)N1CCC(c2c[nH]c3c(C(N)=O)cc(-c4cccc(CN(CCOC)CCOC)c4)cc23)CC1` [Example 8, 5-[3-({bis[2-(methyloxy)ethyl]amino}methyl)phenyl]-3-[1-(ethylsulfonyl)-4-piperidinyl]-1H-indole-7-carboxamide], the IC50 in assay [1] was ≤ 10 µM; in assay [2], ≤ 1500 nM.

Take `CCS(=O)(=O)N1CCC(c2c[nH]c3c(C(N)=O)cc(-c4cccc(CN5CC(C)OC(C)C5)c4)cc23)CC1` (centres unmarked) [Example 9, 5-{3-[(2,6-dimethyl-4-morpholinyl)methyl]phenyl}-3-[1-(ethylsulfonyl)-4-piperidinyl]-1H-indole-7-carboxamide]: the IC50 in assay [1] was ≤ 10 µM; in assay [2], ≤ 1500 nM.

Regarding `CCS(=O)(=O)N1CCC(c2c[nH]c3c(C(N)=O)cc(-c4cccc(CN5CCCC5c5nccs5)c4)cc23)CC1` (centres unmarked) [Example 10, 3-[1-(ethylsulfonyl)-4-piperidinyl]-5-(3-{[2-(1,3-thiazol-2-yl)-1-pyrrolidinyl]methyl}phenyl)-1H-indole-7-carboxamide], the IC50 in assay [1] is ≤ 10 µM; in assay [2], ≤ 1500 nM.

Turning to `CCS(=O)(=O)N1CCC(c2c[nH]c3c(C(N)=O)cc(-c4cccc(CN5CCCC5c5cccs5)c4)cc23)CC1` (centres unmarked) [Example 11, 3-[1-(ethylsulfonyl)-4-piperidinyl]-5-(3-{[2-(2-thienyl)-1-pyrrolidinyl]methyl}phenyl)-1H-indole-7-carboxamide], the IC50 in assay [1] is ≤ 10 µM; in assay [2], ≤ 1500 nM.

Regarding `CCS(=O)(=O)N1CCC(c2c[nH]c3c(C(N)=O)cc(-c4cccc(CN(C)CC(O)c5ccccc5)c4)cc23)CC1` (centres unmarked) [Example 12, 3-[1-(ethylsulfonyl)-4-piperidinyl]-5-(3-{[(2-hydroxy-2-phenylethyl)-(methyl)amino]methyl}phenyl)-1H-indole-7-carboxamide], the IC50 was ≤ 10 µM in assay [1] and ≤ 1500 nM in assay [2].

On to `CCN(C)Cc1cccc(-c2cc(C(N)=O)c3[nH]cc(C4CCN(S(=O)(=O)CC)CC4)c3c2)c1` [Example 13, 5-(3-{[ethyl(methyl)amino]methyl}phenyl)-3-[1-(ethylsulfonyl)-4-piperidinyl]-1H-indole-7-carboxamide], for which the IC50 was ≤ 10 µM in assay [1] and ≤ 1500 nM in assay [2].

For the compound `CCS(=O)(=O)N1CCC(c2c[nH]c3c(C(N)=O)cc(-c4cccc(CNC5CCCC5)c4)cc23)CC1` [Example 15, 5-{3-[(cyclopentylamino)methyl]phenyl}-3-[1-(ethylsulfonyl)-4-piperidinyl]-1H-indole-7-carboxamide], the IC50 in assay [1] is ≤ 10 µM; in assay [2] it was > 1000 nM.

For `CCS(=O)(=O)N1CCC(c2c[nH]c3c(C(N)=O)cc(-c4cccc(CNCc5ccc(O)c(O)c5)c4)cc23)CC1` [Example 16, 5-[3-({[(3,4-dihydroxyphenyl)methyl]amino}methyl)phenyl]-3-[1-(ethylsulfonyl)-4-piperidinyl]-1H-indole-7-carboxamide], the IC50 is ≤ 10 µM in assay [1] and ≤ 1500 nM in assay [2].

In the case of `CCS(=O)(=O)N1CCC(c2c[nH]c3c(C(N)=O)cc(-c4cccc(CNCc5ccsc5)c4)cc23)CC1` [Example 17, 3-[1-(ethylsulfonyl)-4-piperidinyl]-5-(3-{[(3-thienylmethyl)amino]methyl}phenyl)-1H-indole-7-carboxamide], the IC50 was ≤ 10 µM in assay [1] and ≤ 1500 nM in assay [2].

As for `CCS(=O)(=O)N1CCC(c2c[nH]c3c(C(N)=O)cc(-c4cccc(CN[C@@H](CO)C(C)C)c4)cc23)CC1` [Example 18, 3-[1-(ethylsulfonyl)-4-piperidinyl]-5-[3-({[(1R)-1-(hydroxymethyl)-2-methylpropyl]amino}methyl)phenyl]-1H-indole-7-carboxamide], the IC50 in assay [1] is ≤ 10 µM; in assay [2], ≤ 1500 nM.

Regarding `CCS(=O)(=O)N1CCC(c2c[nH]c3c(C(N)=O)cc(-c4cccc(CNC(C)CO)c4)cc23)CC1` (centres unmarked) [Example 19, 3-[1-(ethylsulfonyl)-4-piperidinyl]-5-(3-{[(2-hydroxy-1-methylethyl)amino]methyl}phenyl)-1H-indole-7-carboxamide], the IC50 in assay [1] was ≤ 10 µM; in assay [2], ≤ 1500 nM.

With `CCS(=O)(=O)N1CCC(c2c[nH]c3c(C(N)=O)cc(-c4cccc(CN[C@H]5CC[C@H](O)CC5)c4)cc23)CC1` [Example 20, 3-[1-(ethylsulfonyl)-4-piperidinyl]-5-(3-{[(trans-4-hydroxycyclohexyl)amino]methyl}phenyl)-1H-indole-7-carboxamide], the IC50 in assay [1] is ≤ 10 µM; in assay [2], ≤ 1500 nM.

On to `CCS(=O)(=O)N1CCC(c2c[nH]c3c(C(N)=O)cc(-c4cccc(CNC[C@H](C)O)c4)cc23)CC1` [Example 22, 3-[1-(ethylsulfonyl)-4-piperidinyl]-5-[3-({[(2S)-2-hydroxypropyl]amino}methyl)phenyl]-1H-indole-7-carboxamide], for which the IC50 is ≤ 10 µM in assay [1] and ≤ 1500 nM in assay [2].

For the compound `CCNCc1cccc(-c2cc(C(N)=O)c3[nH]cc(C4CCN(S(=O)(=O)CC)CC4)c3c2)c1` [Example 23, 5-{3-[(ethylamino)methyl]phenyl}-3-[1-(ethylsulfonyl)-4-piperidinyl]-1H-indole-7-carboxamide], the IC50 in assay [1] is ≤ 10 µM; in assay [2] it was ≤ 1500 nM.

In the case of `CCCNCc1cccc(-c2cc(C(N)=O)c3[nH]cc(C4CCN(S(=O)(=O)CC)CC4)c3c2)c1` [Example 24, 3-[1-(ethylsulfonyl)-4-piperidinyl]-5-{3-[(propylamino)methyl]phenyl}-1H-indole-7-carboxamide], the IC50 in assay [1] is ≤ 10 µM; in assay [2], > 1000 nM.

Turning to `CCS(=O)(=O)N1CCC(c2c[nH]c3c(C(N)=O)cc(-c4cccc(CNC(C)C)c4)cc23)CC1` [Example 25, 3-[1-(ethylsulfonyl)-4-piperidinyl]-5-(3-{[(1-methylethyl)amino]methyl}phenyl)-1H-indole-7-carboxamide], the values for the IC50 in assay [1] and in assay [2] were ≤ 10 µM and ≤ 1500 nM, respectively.

In the case of `CCC(CC)NCc1cccc(-c2cc(C(N)=O)c3[nH]cc(C4CCN(S(=O)(=O)CC)CC4)c3c2)c1` [Example 26, 5-(3-{[(1-ethylpropyl)amino]methyl}phenyl)-3-[1-(ethylsulfonyl)-4-piperidinyl]-1H-indole-7-carboxamide], the IC50 in assay [1] was ≤ 10 µM; in assay [2], ≤ 1500 nM.

Consider `CCS(=O)(=O)N1CCC(c2c[nH]c3c(C(N)=O)cc(-c4ccc(CN5CCCCC5)cc4)cc23)CC1` [Example 27, 3-[1-(ethylsulfonyl)-4-piperidinyl]-5-[4-(1-piperidinylmethyl)phenyl]-1H-indole-7-carboxamide], for which the IC50 in assay [1] was ≤ 10 µM; in assay [2], ≤ 1500 nM.

For `CCS(=O)(=O)N1CCC(c2c[nH]c3c(C(N)=O)cc(-c4cccc(CNC)c4)cc23)CC1` [Example 28, 3-[1-(ethylsulfonyl)-4-piperidinyl]-5-{3-[(methylamino)methyl]phenyl}-1H-indole-7-carboxamide], the IC50 in assay [1] is ≤ 10 µM; in assay [2] it was ≤ 1500 nM.

As to `CCS(=O)(=O)N1CCC(c2c[nH]c3c(C(N)=O)cc(-c4ccc(CN5CCOCC5)cc4)cc23)CC1` [Example 29, 3-[1-(ethylsulfonyl)-4-piperidinyl]-5-[4-(4-morpholinylmethyl)phenyl]-1H-indole-7-carboxamide], the IC50 in assay [1] is ≤ 10 µM; in assay [2], ≤ 1500 nM.

Turning to `CCS(=O)(=O)N1CCC(c2c[nH]c3c(C(N)=O)cc(-c4ccc(CN)cc4)cc23)CC1` [Example 30, 5-[4-(aminomethyl)phenyl]-3-[1-(ethylsulfonyl)-4-piperidinyl]-1H-indole-7-carboxamide], the IC50 in assay [1] was ≤ 10 µM; in assay [2], ≤ 1500 nM.

Take `CCS(=O)(=O)N1CCC(c2c[nH]c3c(C(N)=O)cc(-c4cccc(CNC5CC5)c4)cc23)CC1` [Example 31, 5-{3-[(cyclopropylamino)methyl]phenyl}-3-[1-(ethylsulfonyl)-4-piperidinyl]-1H-indole-7-carboxamide]: the IC50 is ≤ 10 µM in assay [1] and ≤ 1500 nM in assay [2].
